The record followed here is patent US20250090562A1, “METHODS, COMPOSITIONS AND USES RELATED TO THE TREATMENT AND PREVENTION OF LEIGH’S SYNDROME” (Stealth BioTherapeutics Inc., priority 2023, published 2025).

Entries after “also recorded” stand apart in the source; their conditions may differ. Read-outs that look alike come from different tables or passages of the source.

A short description of data set [1]: Pharmacokinetics of Compound 3, repeated (5 days) subcutaneous dose, rats. Format: in vivo, Sprague Dawley rats. The method, then: • Animals: Rat/Sprague Dawley/Male/Naive 225-250 grams were received from an approved vendor. • Fasting was not required for this study. • Body weights were recorded prior to dose administration. The volume of each dose delivered (mL/kg) was based on each individual animal's body weight. • This was a multiple dose terminal study dosed once per day over 5 days. Rats were taken down following their 5th and final dose. • Doses were administered in accordance with test facility standard operating procedures. […] Any abnormalities were recorded. • Pre-formulated Compounds 3 was provided by Study sponsor ready to be dosed for each day in accordance with the Study Design set forth in Table 3, below.
• Terminal blood samples were collected via cardiac puncture following inhalation anesthesia in accordance with test facility standard operating procedures. • Blood samples were collected into tubes with appropriate anticoagulant. Tubes were stored on wet ice until processed to plasma by centrifugation (3500 rpm at 5° C. for 10 minutes) within 20 minutes of collection. Sample aliquots of 100 μL were transferred into individual uniquely labeled matrix tubes and stored at nominal −80° C. until transferred to analytical chemistry for analysis. • Immediately following each terminal blood collection for all groups, animals were sacrificed and perfused with cold PBS. […]

The subject of data set [2] is 15-lipoxygenase (15-LO). The data set is described as follows: 15(S)-HETE ELISA following erastin treatment, healthy fibroblasts. The settings on record: erastin + FAC + AA, 1 μM compound, 24 h. Type of data set: cell-based, human. The method, then: (§1) Samples for the 15(S)-HETE ELISA were generated by the Erastin Assay described above. Healthy or Leigh fibroblasts were resuspended in assay medium, seeded at 200,000 cells/well in a clear, tissue culture-treated, 24-well plate, and incubated at 37° C. for 24 hours. Supernatant was aspirated from each well.
(§2) Ferroptosis was induced using erastin at 2 μM concentration. 15(S)-HETE, which is a metabolite of arachidonic acid and generated by activity of 15-LO, was measured using a commercially available ELISA kit. Data were normalized to the “No treatment” group, which represented fibroblasts that were not injured with erastin.

Data set [3] deals with 15-lipoxygenase (15-LO). The data set is described as follows: 15(S)-HETE ELISA following erastin treatment, Leigh fibroblasts. Format: cell-based, human. The settings on record: erastin + FAC + AA, 1 μM compound, 24 h. Here is the method:
as §1, §2

The format of data set [4] is in vivo. The settings on record: rat, single dose 1 mg/kg IV, 10 mg/kg SC or 10 mg/kg PO. The method, then: • Animals: Rat/Sprague Dawley/Male/Naive 225-250 grams were received from an approved vendor. • Animals were fasted overnight prior to dose administration. Food was returned following the 2 hour sample collection. • Body weights were recorded prior to dose administration. The volume of each dose delivered (ml/kg) was based on each individual animal's body weight. • This was a single dose, serial blood collection study with tissues collected for possible future analysis. • Doses were administered in accordance with test facility standard operating procedures. […].
• Blood samples were collected via jugular vein catheter (JVC) and transferred to tubes with appropriate anticoagulant. The tubes were stored on wet ice until processed to plasma by centrifugation (3500 rpm at 5° C. for 10 minutes) within 20 minutes of collection. Sample aliquots of 100 μL were transferred into individual uniquely labeled matrix tubes containing 10 μL of 5% (v/v) formic acid aqueous solution and stored at nominal −80° C. until analyzed by LC/MS/MS. • Immediately following final serial blood collection (24 hours, JVC), animals were sacrificed and perfused with cold PBS. […]

A short description of data set [5]: Compound 4 pharmacokinetics and tissue exposure, five daily subcutaneous doses, mice. Type of data set: in vivo, C57BL/6 mice. Here is the method: • Animals were allowed to acclimate to the test facility for at least two days prior to the beginning of the study. • Study animals were male C57BL/6 mice weighing approximately 18-25 grams each. • Fasting was not required for the study. • Body weights were recorded prior to dose administration. The volume of each dose delivered (mL/kg) was based on each individual animal's body weight. • This was a multiple dose serial PK dosed subcutaneously once daily over 5 days. Compound 4 was administered to two groups: Group 1 at 60 mg/kg and Group 2 at 180 mg/kg (6 and 18 mg/mL, 15% Kolliphor ELP in PBS, 10 mL/kg; N=3/group). Serial PK timepoints were collected following the 5th and final dose.
• Serial blood samples were collected via tail vein snip. • Blood samples were collected into tubes with anticoagulant. Tubes were stored on wet ice until processed to plasma by centrifugation (3500 rpm at 5° C. for 10 minutes) within 20 minutes of collection. Sample aliquots of 20 μL were transferred into individual uniquely labeled matrix tubes and stored at nominal −80° C. until transferred to analytical chemistry for analysis. • Immediately following each terminal blood collection for all groups, animals were sacrificed and perfused with cold PBS. Heart and brain tissues were collected. • Perfusion methodology: The chest was opened lengthwise using scissors to expose the thoracic organs. A scalpel was used to cut a small hole into the left ventricle just large enough to insert a cannula tip. The cannula was attached to an appropriately sized tubing and syringe prefilled with cold PBS and primed to remove any air. The tip of the cannula was inserted into the left ventricle and directed into the ascending aorta. Hemostats were used to help keep the cannula in place during perfusion. A second hole was made in the right atrium to allow for the escape of fluid during the return circulation. The syringe attached to the cannula was manually pushed or placed into a pump programmed to infuse at 10 mL/min. Animals were perfused for a minimum of 3 minutes or more if needed (until the exiting fluid was clear).
• N=3/group; • Collections relative to the final dose: • Plasma: 60 mg/kg at 2 and 24 hr; 180 mg/kg at predose, 2, 8, and 24 hr • Heart and Brain: 24 hr (terminal, PBS-perfused); • RGA 2 bioanalysis. […]

Where [6] appears, read: male, C57BL/6, mouse, in vivo, sc.
Where [7] appears, read: male, C57BL/6, mouse, in vivo, sc, 60 mg/kg.
Where [8] appears, read: male, C57BL/6, mouse, in vivo, sc, 60 mg/kg, 24 h.
[9] abbreviates: male, C57BL/6, mouse, in vivo, sc, 180 mg/kg.
[10] abbreviates: male, C57BL/6, mouse, in vivo, sc, 180 mg/kg, 24 h.

Turning to `CC1=C(C)C(=O)C(CC[C@@](C)(O)COCCC[Si](C)(C)C)=C(C)C1=O` [Compound 3], in data set [1] (20 mg/kg SC in mouse versus 10 mg/kg SC in rat (60 mg/m^2)), the “plasma uptake and clearance across species (mouse versus rat)” value is reported as “roughly equivalent; also recorded: scales well by allometry”. Also, the tolerability entry in data set [1] (rat, 10 mg/kg SC once per day for 5 days) is on record as “well tolerated”.

As for `CC1=C(C)C(=O)C(CC[C@@](C)(O)CC/C=C(\C)CCC=C(F)F)=C(C)C1=O` [Compound 2], the “relative 15-LO inhibition (comparison between test articles)” value with 15-lipoxygenase (15-LO) [2] and in the data set on 15-lipoxygenase (15-LO) [3] was “slightly less effective” throughout. Moreover, in data set [4], the tolerability result is “well tolerated”. Also, in data set [4] (preliminary), the “delivery by mode of administration” value was “effectively administered”.

With `CC1=C(C)C(=O)C(CC[C@](C)(O)CCCCCCCCC(F)(F)F)=C(C)C1=O` [Compound 4], the tolerability result in data set [5] (60 and 180 mg/kg SC over 5 days, 10 mL/kg QD, 15% Kolliphor ELP in PBS) is “well tolerated”. Moreover, the “Geomean C24” value in data set [5] (male, C57BL/6, mouse, in vivo, 180 mg/kg, 24 h) stood at 602 ng/g. The concentration at 24 h in data set [5] (male, C57BL/6, mouse, in vivo, 180 mg/kg, Geomean C24) amounted to 514 ng/g; in data set [5] (male, C57BL/6, mouse, in vivo, sc, 60 mg/kg, Concentration in C57BL/6 Mouse Tissue, Geomean), 192 ng/g; in data set [5] (male, C57BL/6, mouse, in vivo, sc, 60 mg/kg, Concentration in C57BL/6 Mouse Tissue, Mean), 212 ng/g; in data set [5] (male, C57BL/6, mouse, in vivo, sc, 180 mg/kg, C24) it was 0.266 µg/mL; in data set [5] (male, C57BL/6, mouse, in vivo, sc, 180 mg/kg, Concentration in C57BL/6 Mouse Tissue, Geomean), 514 ng/g; in data set [5] (male, C57BL/6, mouse, in vivo, sc, 180 mg/kg, Concentration in C57BL/6 Mouse Tissue, Mean), 529 ng/g. In addition, the time to steady-state in data set [5] (setting [6]) is reported as no more than 5 days. Moreover, the results for the AUC(0-t) in data set [5] (setting [7]) and in data set [5] (setting [9]) were 15.4 µg·h/mL and 49.1 µg·h/mL, respectively. The AUClast/Dose worked out at 257 kg·ng·h/mL/mg in data set [5] (setting [7]) and 273 kg·ng·h/mL/mg in data set [5] (setting [9]). Moreover, the Cmax (usually the highest concentration seen after dosing) in data set [5] (setting [7]) amounted to 1.44 µg/mL; in data set [5] (male, C57BL/6, mouse, in vivo, sc, 60 mg/kg, Cmax), 1.81 µg/mL; in data set [5] (male, C57BL/6, mouse, in vivo, sc, 180 mg/kg, Cmax) it was 4.8 µg/mL. Further, the “Concentration in C57BL/6 Mouse Tissue, Geomean” value in data set [5] (setting [8]) was found to be 225 ng/g; in data set [5] (setting [10]), 602 ng/g. For the same compound, the results for the “Concentration in C57BL/6 Mouse Tissue, Mean” value in data set [5] (setting [8]) and in data set [5] (setting [10]) were 226 ng/g and 635 ng/g, respectively. For the same compound, in data set [5] (setting [9]), the Cmax/Dose was determined as 26.7 kg·ng/mL/mg. The compound further had a C24/Dose in data set [5] (setting [10]) of 1.48 kg·ng/mL/mg. Moreover, the Tmax (commonly the time from dosing to the highest level) in data set [5] (setting [9]) is 2 h; in data set [5] (setting [6]), 0.5 to 2 h. For the same compound, the “plasma exposure versus dose” value in data set [5] (mouse, in vivo) is “approximately proportional to dose”. Besides, in data set [5] (mouse, in vivo), the “tissue C24 (trough) exposure versus dose” value was “approximately proportional to dose”.
